Consider 80 compounds from the METLIN SMRT retention time set (Domingo-Almenara et al. 2019).

The data set in a line: gradient 5% acetonitrile 3 min, to 50% in 2 min, to 85% in 15 min, held 3 min, 100 µL/min. The note with it: column: Zorbax Extend-C18 2.1 x 50 mm; eluents: water / acetonitrile, 0.1% formic acid. A digest of the protocol: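 Over 3 months, pure standards in mixtures of ~100 molecules were run by HPLC coupled to a quadrupole time-of-flight mass spectrometer in positive and negative ionization mode. The column was a Zorbax Extend-C18 (2.1 × 50 mm, 1.8 μm) at 100 μL/min, eluted with water and acetonitrile each holding 0.1% formic acid, with 40 μL dead and 900 μL dwell volumes. Retention time was determined from adduct peaks chosen by software and checked manually.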
As to `Cn1ccc(CN2CCN(Cc3ccccc3F)CC2)cc1=O`, the RP-LC retention time was 554 s. With `O=C(NCC1CC1)C1CCN(c2nc3ccsc3c(=O)n2-c2ccccc2)CC1` the figure was 747 s. With `Cc1ccc(Nc2nc(C(=O)NCc3ccc(C)o3)nc3ccccc23)cc1` the figure was 847 s; with `O=C(c1nnc(-c2ccc(S(=O)(=O)N3CCCCC3)cc2)o1)N1CCc2ccccc2C1`, 1080 s. With `CCC(C)NC(=O)c1cc2c(s1)N(CC1CC1)CCCC2` (stereo not given) the figure was 1090 s. Regarding `CCc1ccc(CNC(=O)C2CCCN(c3nccc(C)n3)C2)cc1` (stereo not given), the RP-LC retention time was determined as 820 s. `COc1ccc(S(=O)(=O)N2CCC(c3noc(-c4ccccc4)n3)CC2)cc1Cl` displayed an RP-LC retention time of 1140 s.

Consider `COc1ccc(CNC(=O)C2CCN(c3nnc4cccc(C)n34)CC2)cc1`, for which the RP-LC retention time was found to be 646 s. Compound `CC(C)S(=O)(=O)c1cc2c(cc1NC(=O)c1ccccc1F)n(C)c(=O)n2C` showed an RP-LC retention time of 799 s.

Compound `CCNS(=O)(=O)c1c(C)[nH]c(=O)[nH]c1=O` came in with an RP-LC retention time of 550 s. The compound `Cc1ccc(-c2noc(Cn3c(=O)n(-c4ccccc4C)c(=O)c4sccc43)n2)cc1C` registered an RP-LC retention time of 1110 s. The compound `CCNC(=O)c1ccc(-c2nc3cc(NS(=O)(=O)c4ccc(C(C)C)cc4)ccc3n2C)cc1` returned an RP-LC retention time of 744 s. Next, `Cc1nnc(N2CCCC(C(=O)NCCCOC(C)C)C2)c2nn(-c3ccccc3)c(C)c12` (stereo not given): 678 s; `Cc1ccc(Cn2cc(-c3ccncc3)cc2C(=O)N(C)Cc2ccccc2)cc1`: 751 s.

Compound `O=C(NCCCN1CCN(C2CCCCC2)CC1)c1ccc2c(c1)NC(=O)C1CCCCN21` (stereo not given) returned an RP-LC retention time of 576 s. With `COC(=O)c1sc(NC(=O)COc2ccc(Cl)cc2)nc1C` the figure was 963 s; with `CC(C)(C)c1ccc(/C=C/C(=O)Nc2ccc3c(c2)OCCO3)cc1`, 1190 s; with `COc1cc2c3c(c1OC)-c1cc4c(cc1CC3(C#N)N(C(=O)c1ccccc1)CC2)OCO4` (stereo not given), 987 s. Next, `CCn1cc(S(=O)(=O)N2CCC3(CC2)CC(OCc2ccccc2)CCO3)cn1` (stereo not given): 897 s; `COc1cc(-c2noc(Cn3cnc4c(oc5ccccc54)c3=O)n2)cc(OC)c1OC`: 857 s; `CC(C)c1cccc(NC(=O)Cn2cnc3nc(N4CCC(C(=O)NC5CC5)CC4)sc3c2=O)c1`: 743 s.

In turn, `CCc1ccc(NS(=O)(=O)c2cc3c4c(c2)CCC(=O)N4CCC3)cc1` showed an RP-LC retention time of 906 s. With `O=C(NC1CC1)c1ccc(-n2cccn2)nc1` the figure was 653 s; with `O=C(c1ccc(-n2c(-c3ccccc3)nc3cccnc32)cc1)N1CCN(c2ccccn2)CC1`, 613 s. With `Cc1ccc(Nc2nc(N)nc(CN3CCN(c4ccccn4)CC3)n2)cc1` the figure was 590 s; with `CC(=O)NCc1ccc(-c2noc(-c3ccc(F)c(Cl)c3)n2)s1`, 955 s; with `CCOC(=O)c1noc2ncnc(N3CCN(c4ccc(F)cc4)CC3)c12`, 1010 s. As to `CCN(CC)CCOC(=O)C(O)(c1ccccc1)c1ccccc1`, the RP-LC retention time was 714 s. `COCC(=O)Nc1ccccc1NC(=O)c1ccsc1`: the RP-LC retention time amounted to 648 s. With `CCc1nn2c(CNC(=O)c3ccsc3)c(-c3ccccc3)nc2s1` the figure was 854 s; with `CC1CCN(CC2CCCN(C(=O)C3(c4ccccc4)CC3)CC2)CC1` (stereo not given), 660 s; with `CCOCCCNC(=O)c1cc2c(n(-c3ccc(C(F)(F)F)cc3)c1=O)CCCC2=O`, 853 s. `CCc1cc(=O)n(CC(=O)Nc2ccccc2CC)c(N)n1` gave an RP-LC retention time of 610 s.

With `COc1ccc(Cl)cc1NC(=O)NC1CCN(c2ccccc2)C1=O` (stereo not given), the RP-LC retention time stood at 873 s. Next, `Cc1ccc(NC(=O)N2CCC3(C2)c2nc[nH]c2CCN3C)c(C)c1` (stereo not given): 568 s. With `CC(C)CC(=O)Nc1ccc2c(c1)nc(CN1CCOCC1)n2C(C)C` the figure was 630 s; with `CCOC(=O)C1=C(C)NC(=O)NC1c1nc2ccccc2n1CC` (stereo not given), 597 s; with `CC1=C(c2ccc(C)cc2)S(=O)(=O)N=C1N1CCCN(C(=O)c2ccoc2)CC1`, 786 s. With `O=C(NCC1CCCO1)c1cccc(Nc2c(-c3ccc(Cl)cc3)nc3cnccn23)c1` (stereo not given) the figure was 753 s; with `Cc1ccc(NC(=O)N2CCN(c3nc4cccnc4n(C)c3=O)CC2)cc1Cl`, 951 s. As for `O=C(Nc1ccnn1Cc1cccs1)c1ccccc1Br`, the RP-LC retention time amounted to 794 s. In turn, `CCOc1cccc(C2CC(c3ccc(Br)cc3)=NC3(CCN(C)CC3)N2)c1O` (stereo not given) returned an RP-LC retention time of 649 s. Next, `CCN1c2cc(Cl)ccc2C(=O)NC12CCN(C(=O)NCc1cccc(F)c1)CC2`: 856 s. With `CCNC(=O)NC1CCN(c2ccccc2)C1=O` (stereo not given) the figure was 596 s; with `Cc1noc([C@@H]2CC(F)(F)CN2C(=O)c2ccoc2C)n1`, 756 s; with `O=C(CCn1c(=O)sc2ccccc21)Nc1nc(-c2ccccc2)cs1`, 1010 s. `O=C(NC1CCN(c2ccccc2)C1=O)c1cccc(Br)c1` (stereo not given) displayed an RP-LC retention time of 855 s. Next, `O=C(CSc1nnc2ccccn12)N1CCOCC1`: 551 s; `CCNC(=O)c1cnn(-c2ccc(-c3nc(CC)no3)cn2)c1C`: 777 s.

`COc1ccccc1NC(=O)Cn1nc2cc(C)nc(Nc3ccccc3)n2c1=O` returned an RP-LC retention time of 1020 s. Next, `CC(C)Cn1c(=O)c2cc(C(=O)NCc3ccncc3)nn2c2ccccc21`: 657 s; `COc1ccc(N2CCN(C(=O)C3CCCN(C(=O)c4cc5sccc5n4C)C3)CC2)cc1` (stereo not given): 821 s; `COc1ccc2[nH]c3c(c2c1)CCN1C(=O)N(c2ccccc2OC)C(=O)C31C` (stereo not given): 884 s.

`O=C(NCCc1ccccn1)C1CCc2nc(N3CCCCC3)ncc2C1` (stereo not given) yielded an RP-LC retention time of 575 s. With `CCc1nn2c(CNS(=O)(=O)c3cccc(Cl)c3)c(-c3ccccc3)nc2s1` the figure was 971 s; with `COc1cccc(NC(=O)Cn2nc3cc(C)nc(Nc4ccccc4C)n3c2=O)c1`, 1010 s. With `Cc1sc2ccn(CC(C)C)c(=O)c2c1C(=O)NCc1ccc(F)cc1` the figure was 917 s; with `CCC(C)NC(=O)c1ccc2c(c1)CCCN2S(=O)(=O)CC` (stereo not given), 781 s; with `Cc1cc(N2CCOCC2)n2nc(CN3CCc4ccccc4C3)nc2n1`, 590 s. Next, `CN1C(=O)C(c2c(-c3ccccc3)[nH]c3[nH]c(=O)[nH]c(=O)c23)c2ccccc21` (stereo not given): 668 s; `COc1ncc(C(=O)Nc2ccccc2)c(C)n1`: 698 s; `O=C(c1cc2ccccc2[nH]1)N1CCN(c2cc(-c3ccccc3)[nH]n2)CC1`: 792 s. As to `CNC(=O)C1CCN(C(=O)Nc2ccc(NC(=O)Nc3ccccc3)cc2)CC1`, the RP-LC retention time is 636 s. Next, `Cc1cc(CN2CCC(CNC(=O)Cc3ccccc3Cl)CC2)c(C)o1`: 583 s; `O=C1OCC2=C1C(c1ccccc1)NC(=O)N2CC(=O)N1CCCCC1` (stereo not given): 672 s; `CCC(C)C(=O)NC1CCN(C2=NS(=O)(=O)C(c3ccccc3)=C2C)CC1` (stereo not given): 752 s. Next, `CCc1nnc(-c2ccc3ccn(CC(=O)Nc4cc(F)ccc4F)c3c2)o1`: 879 s.

As to `Cc1ccc(C(=O)Nc2nc(-c3ccc(Br)cc3)cs2)cc1[N+](=O)[O-]`, the RP-LC retention time came out at 1210 s. Next, `Cc1ccc(C)c(NC(=O)Cn2cnc3nc4c(cc3c2=O)CCCC4)c1`: 705 s. `COc1ccc(-c2nc3cnccn3c2Nc2ccc(Br)cc2)cc1OC` showed an RP-LC retention time of 884 s. Next, `Cc1ccc(CNC(=O)C2CCCN(c3nc4ncccc4n4cccc34)C2)cc1` (stereo not given): 640 s; `Cc1nc(C)c(C(=O)Nc2nc(-c3ccc(Br)cc3)cs2)s1`: 1030 s; `CC(C)N1C(=O)c2cccnc2Sc2cc(NC(=O)C3(c4ccccc4)CC3)ccc21`: 1020 s.

As for `O=C(c1c2c(nn1C1CCS(=O)(=O)C1)CCC2)N1CCC(Cc2ccccc2)CC1` (stereo not given), the RP-LC retention time came to 849 s.

The compound `CC1Oc2ccccc2N(Cc2nc(-c3ccc(F)c(Cl)c3)no2)C1=O` (stereo not given) gave an RP-LC retention time of 1190 s. `COc1ccc(-c2noc(Cn3ccn(-c4c(C)cccc4C)c(=O)c3=O)n2)cc1OC` yielded an RP-LC retention time of 797 s. With `N#CC(c1ccccc1)C(C/C(=N\O)c1ccccc1)c1ccccc1` (stereo not given) the figure was 1090 s; with `Cc1ccc(-c2nc(-c3ccc4c(c3)oc(=O)n4C)no2)cc1`, 1120 s; with `CCC(C)NC(=O)c1nc(-c2ccnc(N3CCCCCC3)c2)no1` (stereo not given), 708 s. Next, `COc1ccc(C(CC(=O)NCCN2CCOCC2)N2Cc3ccccc3C2=O)cc1OC` (stereo not given): 603 s.
